# Laboratory results from patent US20190021380A1 (priority 2014, published 2019).
# Structures can show the parent of a compound that is named as a salt. Where two headings read alike, the source gives them in different places.
# Assays:
# cat T1R1/T1R3 receptor = cat T1R1/T1R3 receptor (Felis catus, UniProt E3UMS2); assay: cell-based; settings: for Max resp % of IMP: hek293 cells
# Text: (§1) HEK293 cells that stably express T1R3 and inducibly express T1R1 were exposed to nucleotide derivatives alone or in combination with one or more amino acids and/or one or more nucleotides to activate the umami receptor. Activation of the T1R1/T1R3 receptor was detected by a change in intracellular calcium levels using a calcium sensitive fluorescent dye and/or a luminescent reporter system. Cells that express T1R3 but not T1R1 were used as a control. A FLIPR® Tetra or a FlexStation® 3 was used for data capture.
# T1R1/T1R3 receptor = T1R1/T1R3 receptor (Felis catus, UniProt E3UMS2); assay: cell-based; type: cell-based; settings: for Max resp % of Ala +IMP (0.2 mM): relative to Ala; for Max resp ΔF/F +Alanine (20 mM) / Thres (mM) +Alanine (20 mM) / Max resp % of IMP +Alanine (20 mM): in the presence of 20 mM alanine; for Max resp % of IMP +Alanine (20 mM): relative to IMP; for activation of T1R1/T1R3 by the compound alone: in words
# Text: as §1, with “transmembrane compounds” for “nucleotide derivatives”, “dye.” for “dye and/or a luminescent reporter system.”
# In each experiment, serial dilutions of up to 10 mM of the transmembrane compound were added to the T1R1/T1R3-expressing cells.
# [1] = in the presence of 20 mM alanine, read-out: EC50-with Ala
# [2] = EC50 (mM), + Alanine (20 mM), Table 15
# [3] = EC50 (mM) +IMP (0.2 mM), in the presence of 0.2 mM IMP
# [4] = compound alone in buffer, read-out: EC50 (mM) +buffer (alone)
Compound,Max resp ΔF/F +IMP (0.2 mM) (T1R1/T1R3 receptor; in the presence of 0.2 mM IMP),Thres (mM) +IMP (0.2 mM) (T1R1/T1R3 receptor; in the presence of 0.2 mM IMP) [mM],Max resp % of Ala +IMP (0.2 mM) (T1R1/T1R3 receptor; in the presence of 0.2 mM IMP) [%],Max resp ΔF/F +Alanine (20 mM) (T1R1/T1R3 receptor),Thres (mM) +Alanine (20 mM) (T1R1/T1R3 receptor) [mM],Max resp % of IMP +Alanine (20 mM) (T1R1/T1R3 receptor) [%],other results
NC(=O)c1ncn(C2OC(COP(=O)(O)O)C(O)C2O)c1N (stereo not shown),–,–,–,–,–,–,EC50 (cat T1R1/T1R3 receptor; EC50-with Ala (mM)): > 1 mM
Nc1ncnc2c1ncn2C1OC(COP(O)(O)=S)C(O)C1O (stereo not shown),–,–,–,–,–,–,Activity (cat T1R1/T1R3 receptor): active; Thres (cat T1R1/T1R3 receptor): 0.003 mM; Max resp % of IMP (cat T1R1/T1R3 receptor): 128.4 % of IMP
NC1NC(=O)c2ncn([C@H]3O[C@@H](COP(=O)(O)O)[C@H](O)[C@@H]3O)c2N1 (stereo partly shown),–,–,–,–,–,–,EC50 (cat T1R1/T1R3 receptor; [1]): 0.03 mM
O=C(Nc1ncnc2c1ncn2[C@@H]1O[C@H](COP(=O)(O)O)[C@@H](O)[C@H]1O)c1ccccc1,–,–,–,–,–,–,Thres (cat T1R1/T1R3 receptor): 0.3 mM; EC50 (cat T1R1/T1R3 receptor; [2]): > 1 mM; Max resp % of IMP (cat T1R1/T1R3 receptor): 105.6 % of IMP
O=P(O)(O)OCC1OC(n2cnc3c(Nc4ccccc4)ncnc32)C(O)C1O (stereo not shown),–,–,–,–,–,–,"EC50 (cat T1R1/T1R3 receptor; EC50-with Ala (mM), in the presence of 20 mM alanine): > 1 mM"
O=c1ccn(C2OC(COP(=O)(O)N3CCOCC3)C(O)C2O)c(=O)[nH]1 (stereo not shown),–,–,–,–,–,–,EC50 (cat T1R1/T1R3 receptor; [2]): > 3 mM
"2′-, 3′-O—(N′-methylanthraniloyl)guanosine-5′-O-monophosphate",–,–,–,–,–,–,"function as activators of T1R1/T1R3 (cat T1R1/T1R3 receptor; in the presence of alanine, in words): activators of T1R1/T1R3"
"O=C(Nc1ccccc1Br)N[C@@H]1c2ccccc2C[C@@H]1O (stereo in doubt) [1-(2-bromophenyl)-3-((1R,2S)-2-hydroxy-2,3-dihydro-1H-inden-1-yl)urea]",0.378,3,44.9,0.3,3,33.0,–
Nc1ncnc2c1ccn2[C@H]1O[C@@H](COP(=O)(O)O)[C@H](O)[C@@H]1O (stereo in doubt) [7-Deazaadenosine-5′-O-monophosphate],–,–,–,–,–,–,Thres (cat T1R1/T1R3 receptor): 0.188 mM
"O=c1ccn([C@H]2O[C@@H](COP(=O)(O)O)[C@H](O)[C@@H]2O)c(=O)[nH]1 (stereo in doubt) [Uridine 5′-monophosphate disodium salt, reference compound]",–,–,–,–,–,–,Thres (cat T1R1/T1R3 receptor): 3.000 mM
O=c1ccn([C@H]2O[C@@H](COP(=O)(O)O)[C@H](O)[C@@H]2O)c(=O)[nH]1 (stereo in doubt) [Uridine 5′-monophosphate disodium salt],–,–,–,–,–,–,EC50 (cat T1R1/T1R3 receptor; EC50-with Ala (mM)): > 30 mM
"O=P(O)(O)OC[C@H]1O[C@@H](n2cnc3c2ncn2ccnc32)[C@H](O)[C@@H]1O [1,N6-Ethenoadenosine-5′-O-monophosphate]",–,–,–,–,–,–,Thres (cat T1R1/T1R3 receptor): 0.010 mM
"O=C(CN1C(=O)C(=O)N(Cc2ccccc2)C1=O)c1ccccc1 [1-benzyl-3-(2-oxo-2-phenylethyl)imidazolidine-2,4,5-trione]",1.140,0.08,135.7,1.3,1,127.6,–
CSc1ccc(-c2nnn(Cc3ccccn3)n2)cc1 [2-((5-(4-(methylthio)phenyl)-2H-tetrazol-2-yl)methyl)pyridine],0.678,0.1575,80.7,–,–,–,–
Nc1nc(Cl)c2ncn(C3OC(COP(=O)(O)O)C(O)C3O)c2n1 (stereo not shown) [2-amino-6-chloropurineriboside-5′-O-monophosphate],–,–,–,–,–,–,Activity (cat T1R1/T1R3 receptor): active; Thres (cat T1R1/T1R3 receptor): 0.00013 mM; Threshold (cat T1R1/T1R3 receptor): 0.00013 mM
"O=P(O)(O)OC[C@H]1O[C@@H](n2cnc3c2ncn2ccnc32)C[C@@H]1O [2′-Deoxy-1,N6-ethenoadenosine-5′-O-monophosphate]",–,–,–,–,–,–,Thres (cat T1R1/T1R3 receptor): 0.05 mM; EC50 (cat T1R1/T1R3 receptor; [1]): 0.2 mM

Compound,Max resp ΔF/F +IMP (0.2 mM) (T1R1/T1R3 receptor; in the presence of 0.2 mM IMP),Thres (mM) +IMP (0.2 mM) (T1R1/T1R3 receptor; in the presence of 0.2 mM IMP) [mM],Max resp % of Ala +IMP (0.2 mM) (T1R1/T1R3 receptor; in the presence of 0.2 mM IMP) [%],Max resp ΔF/F +Alanine (20 mM) (T1R1/T1R3 receptor),Thres (mM) +Alanine (20 mM) (T1R1/T1R3 receptor) [mM],Max resp % of IMP +Alanine (20 mM) (T1R1/T1R3 receptor) [%],other results
"CCC(CC)NC(=O)c1ccc(OC)c(OC)c1 [3,4-dimethoxy-N-(pentan-3-yl)benzamide]",0.9975,0.5,81.0,0.545,0.3,43.9,–
"CCC(CC)NC(=O)c1ccc(C)c(C)c1 [3,4-dimethyl-N-(pentan-3-yl)benzamide]",1.5475,0.525,125.7,1.2150,3,97.8,–
COc1ccc(C(=O)NC(C)c2ccccc2)cc1C (stereo not shown) [4-methoxy-3-methyl-N-(1-phenylethyl)benzamide],1.1775,0.35,95.6,0.51,3,41.0,–
CCCC(C)NC(=O)c1ccc(OC)c(C)c1 (stereo not shown) [4-methoxy-3-methyl-N-(pentan-2-yl)benzamide],1.5875,0.025,128.9,1.5650,0.050,126.0,–
CCC(CC)NC(=O)c1ccc(Br)o1 [5-bromo-N-(pentan-3-yl)furan-2-carboxamide],1.8425,0.3,149.6,1.575,1,126.8,–
"CCCC(C)NC(=O)/C=C/c1ccc(OC)c(OC)c1 (stereo not shown) [(E)-3-(3,4-dimethoxyphenyl)-N-(pentan-2-yl)acrylamide]",1.07,0.55,86.9,0.4375,1,35.2,EC50 (T1R1/T1R3 receptor): > 10 mM; EC50 (T1R1/T1R3 receptor; [3]): 2.2 mM; EC50 (T1R1/T1R3 receptor; [4]): > 10 mM
COc1ccc(/C=C/C(=O)NC2CCCCC2C)cc1 (stereo not shown) [(E)-3-(4-methoxyphenyl)-N-(2-methylcyclohexyl)acrylamide],1.7725,0.3,144.0,0.785,3,63.2,–
CCC(CC)NC(=O)/C=C/c1ccc(OC)cc1 [(E)-3-(4-methoxyphenyl)-N-(pentan-3-yl)acrylamide],1.443,0.0375,171.7,0.7,0.148,64.1,–
COC(=O)C(NC(=O)/C=C/c1cccs1)C(C)C (stereo not shown) [(E)-methyl 3-methyl-2-(3-(thiophen-2-yl)acrylamido)butanoate],0.7375,1,59.9,0.1175,10,9.5,–
O=C(NCCc1ccccc1)C(=O)NCc1cccnc1 [N1-phenethyl-N2-(pyridin-3-ylmethyl)oxalamide],0.7625,0.1,61.9,0.3750,1,30.2,–
"CC1CCCC(NC(=O)c2ccc3c(c2)OCO3)C1C (stereo not shown) [N-(2,3-dimethylcyclohexyl)benzo[d][1,3]dioxole-5-carboxamide]",1.175,0.275,95.4,0.225,3,18.1,–
"COc1cc(C(=O)NC(C(N)=O)c2ccccc2)cc(Cl)c1OC (stereo not shown) [N-(2-amino-2-oxo-1-phenylethyl)-3-chloro-4,5-dimethoxybenzamide]",0.415,0.17,49.4,–,–,–,activation of T1R1/T1R3 by the compound alone (T1R1/T1R3 receptor): failed to activate T1R1/T1R3 alone
"CCCC(CCC)C(=O)Nc1ccc2c(c1)OCO2 [N-(benzo[d][1,3]dioxol-5-yl)-2-propylpentanamide]",0.908,0.0675,108.0,–,–,–,activation of T1R1/T1R3 by the compound alone (T1R1/T1R3 receptor): agonist of T1R1/T1R3 alone
"CCC(CC)NC(=O)c1ccc2c(c1)OCCO2 [N-(pentan-3-yl)-2,3-dihydrobenzo[b][1,4]dioxine-6-carboxamide]",0.8725,0.075,70.9,0.3125,0.3,25.2,–
"CCOC(=O)C(NC(=O)c1ccc2c(c1)OCO2)C(C)C (stereo not shown) [ethyl 2-(benzo[d][1,3]dioxole-5-carboxamido)-3-methylbutanoate]",0.65,1,52.8,0.3175,10,25.6,EC50 (T1R1/T1R3 receptor): > 10 mM; EC50 (T1R1/T1R3 receptor; [3]): > 3 mM; EC50 (T1R1/T1R3 receptor; [4]): > 10 mM
